Some test systems named below: OVCAR-5 ovarian; HCT-15 colon; UO-31 renal; SF-539 CNS; MDA-MB-435; RXF 393 renal; EKVX NSCLC; HOP-62 NSCLC; DU-145 prostate; A549 NSCLC.
Common to all, as to assay: DTP human tumour cell line panel, 48 h

From PubChem BioAssay (NCI) come the findings set out here.

Values joined by “and” are separate entries in the source; they are usually repeats but may differ in a detail not shown here. Equal values may be shown once.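 Step 1: Grow cells in 96-well plates. Step 2: Expose to compound for 48 hours at 5 concentrations. Step 3: Interpolate endpoints linearly; if unreached, use highest concentration. The concentration for 50% growth inhibition is given as GI50. The concentration for full growth arrest is given as TGI.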

Usually GI50 stands for the concentration giving 50% growth inhibition. For orientation: TGI means the concentration at which net growth stops. A lower TGI goes with greater sensitivity of the cells. As for `C#Cc1cccc(NC(=O)C2CCCCN2C(=O)CCl)c1` (centres undefined), the GI50 with OVCAR-5 ovarian is 13.1 µM; with HCT-15 colon it was 9.61 µM; with UO-31 renal, 13.6 µM; in the test with SF-539 CNS, 17.4 µM; with MDA-MB-435 it was 15.8 µM; in the test on RXF 393 renal, 13.4 µM. The GI50 in the test on EKVX NSCLC is above 82.5 µM; in the test on HOP-62 NSCLC, above 82.5 µM; in the test on DU-145 prostate, 24.4 µM; with A549 NSCLC, above 82.5 µM. In addition, the concentration for total growth inhibition (TGI) in the test on OVCAR-5 ovarian amounted to 27.2 µM; with HCT-15 colon, 23.4 µM; in the test with UO-31 renal it was 25.7 µM; in the test on SF-539 CNS it was 49.4 µM; with MDA-MB-435, 60.7 µM; in the test on RXF 393 renal, 34.4 µM. For the same compound, the TGI with EKVX NSCLC, in the test on HOP-62 NSCLC, with DU-145 prostate and with A549 NSCLC was above 82.5 µM each time.

Regarding `Nc1ncnc2c1ncn2Cc1ccc(CCl)cc1`, the GI50 is 18.8 µM in the test on OVCAR-5 ovarian; 21.9 µM with HCT-15 colon; 22.3 µM in the test on UO-31 renal; 16.7 µM with SF-539 CNS; 15.4 µM with MDA-MB-435; 20.3 µM in the test with RXF 393 renal. Moreover, the GI50 in the test on EKVX NSCLC is 17 µM; in the test with HOP-62 NSCLC, 34.5 µM; in the test with DU-145 prostate it was 19 µM; in the test with A549 NSCLC, 17.1 µM. Further, the total growth inhibition concentration (TGI) in the test on OVCAR-5 ovarian turned out to be 35.2 µM; with HCT-15 colon it was 41.5 µM; with UO-31 renal, 46.8 µM; in the test on SF-539 CNS, 38.4 µM; in the test with MDA-MB-435 it was 32.9 µM; in the test on RXF 393 renal, 62.2 µM. The TGI in the test with EKVX NSCLC is 34.9 µM; in the test with HOP-62 NSCLC it was above 100 µM; in the test with DU-145 prostate, 50.7 µM; with A549 NSCLC, 35.1 µM.

Consider `O=C(Nc1ccc([N+](=O)[O-])cc1Cl)c1cc(Cl)ccc1O`, for which the GI50 with OVCAR-5 ovarian was 0.249 µM and 0.373 µM; in the test on HCT-15 colon it was 0.154 µM and 0.26 µM; with UO-31 renal, 0.129 µM and 0.254 µM; in the test on SF-539 CNS, 0.188 µM and 0.261 µM; in the test on MDA-MB-435, 0.115 µM and 0.244 µM; with RXF 393 renal, 0.135 µM and 0.268 µM. Also, the GI50 in the test with EKVX NSCLC is 0.16 µM and 0.315 µM; in the test with HOP-62 NSCLC it was 0.149 µM and 0.262 µM; in the test with DU-145 prostate, 0.199 µM and 0.352 µM; with A549 NSCLC, 0.163 µM and 0.327 µM. For the same compound, the concentration for total growth inhibition (TGI) in the test with OVCAR-5 ovarian is 50 µM and > 95.5 µM; in the test with HCT-15 colon, 3.2 µM; in the test with UO-31 renal, 0.437 µM and 1.01 µM; in the test with SF-539 CNS, 4.3 µM and 12 µM; with MDA-MB-435, 0.381 µM and 1.33 µM; in the test with RXF 393 renal it was 0.434 µM and 2.71 µM. Moreover, the total growth inhibition concentration (TGI) in the test with HOP-62 NSCLC was 0.469 µM; in the test with DU-145 prostate it was 6.22 µM and 35.5 µM; in the test on A549 NSCLC, 23.4 µM and > 100 µM.

Turning to `N/C(=N/O)NOCCC(N)C(=O)O` (centres undefined), the GI50 in the test on OVCAR-5 ovarian, in the test with HCT-15 colon, in the test on UO-31 renal, in the test on SF-539 CNS, with MDA-MB-435 and with RXF 393 renal was above 100 µM each time. For the same compound, the GI50 with EKVX NSCLC, in the test with HOP-62 NSCLC, in the test with DU-145 prostate and in the test with A549 NSCLC was above 100 µM throughout. Besides, the TGI in the test on OVCAR-5 ovarian, with HCT-15 colon, in the test with UO-31 renal, in the test with SF-539 CNS, with MDA-MB-435 and with RXF 393 renal was above 100 µM throughout. Moreover, the TGI in the test with EKVX NSCLC, in the test on HOP-62 NSCLC, with DU-145 prostate and in the test on A549 NSCLC was above 100 µM in each case.

For the compound `NC(=O)C1CCCN1Cc1ccc2c(c1)OCO2` (centres undefined), the TGI in the test on OVCAR-5 ovarian, in the test on HCT-15 colon, in the test with UO-31 renal, in the test on SF-539 CNS, with MDA-MB-435 and in the test on RXF 393 renal was above 100 µM each time. In addition, the concentration for total growth inhibition (TGI) with EKVX NSCLC, in the test on HOP-62 NSCLC, in the test with DU-145 prostate and with A549 NSCLC was above 100 µM each time.

Consider `O=C(Nc1n[nH]c2cc(-c3ccc(F)cc3)ccc12)C1CC1`, for which the GI50 with OVCAR-5 ovarian is 14.8 µM; in the test on HCT-15 colon, 5.7 µM; in the test with UO-31 renal, 3.74 µM; with SF-539 CNS it was 11.2 µM; in the test on MDA-MB-435, 2.31 µM; in the test with RXF 393 renal it was 5.73 µM. The GI50 in the test on EKVX NSCLC was 12.2 µM; in the test on HOP-62 NSCLC, 8.37 µM; in the test with DU-145 prostate it was 10.2 µM; in the test with A549 NSCLC, 10.5 µM. In addition, the TGI with OVCAR-5 ovarian is above 25 µM; with HCT-15 colon, above 25 µM; in the test with UO-31 renal, above 25 µM; with SF-539 CNS, above 25 µM; in the test on MDA-MB-435 it was 12.1 µM; in the test on RXF 393 renal, above 22.6 µM. For the same compound, the total growth inhibition concentration (TGI) is above 25 µM in the test on EKVX NSCLC, above 23.7 µM in the test on HOP-62 NSCLC, above 25 µM in the test with DU-145 prostate and above 25 µM in the test on A549 NSCLC.

As for `Cc1ccc(O)c(C(=O)/C=C/c2ccccc2)c1`, the total growth inhibition concentration (TGI) in the test with OVCAR-5 ovarian, in the test on HCT-15 colon, with UO-31 renal, with SF-539 CNS, with MDA-MB-435 and in the test with RXF 393 renal was above 100 µM in each case. Also, the concentration for total growth inhibition (TGI) in the test on EKVX NSCLC, in the test with HOP-62 NSCLC, in the test with DU-145 prostate and in the test on A549 NSCLC was above 100 µM each time.

Turning to `COC1C[C@H](O[C@@H]2C[C@H](O[C@@H]3C[C@H](O[C@@H]4C(=O)c5c(cc6cc(O[C@H]7C[C@@H](O[C@H]8C[C@@H](O)[C@H](O)C(C)O8)[C@H](O)C(C)O7)c(C)c(O)c6c5O)C[C@H]4C(OC)C(=O)[C@@H](O)[C@@H](C)O)OC(C)[C@H]3O)OC(C)[C@@H]2O)OC(C)[C@@H]1O` (some centres undefined), the 50% growth inhibitory concentration (GI50) with OVCAR-5 ovarian was 0.106 µM; with HCT-15 colon, 2.19 µM; in the test on UO-31 renal, 0.294 µM; with SF-539 CNS it was 0.0736 µM; with MDA-MB-435, 0.0949 µM; in the test on RXF 393 renal it was 0.094 µM. In addition, the GI50 in the test on EKVX NSCLC is 0.122 µM; with HOP-62 NSCLC, 0.0752 µM; in the test on DU-145 prostate it was 0.125 µM; in the test on A549 NSCLC it was 0.185 µM. Also, the concentration for total growth inhibition (TGI) was above 32.5 µM in the test on OVCAR-5 ovarian; above 32.5 µM in the test with HCT-15 colon; 4.76 µM with UO-31 renal; 0.316 µM in the test on SF-539 CNS; 0.45 µM in the test with MDA-MB-435; 0.525 µM in the test on RXF 393 renal. In addition, the total growth inhibition concentration (TGI) was 10.3 µM in the test with EKVX NSCLC, above 32.5 µM in the test with HOP-62 NSCLC, above 32.5 µM in the test with DU-145 prostate and above 32.5 µM in the test with A549 NSCLC.
